Experimental data from ChEMBL document CHEMBL4732235, “Design, synthesis, and evaluation of transition-state analogs as inhibitors of the bacterial quorum sensing autoinducer synthase CepI” (Bioorg Med Chem Lett, 2021).
Activity calls are given as the source filed them. No cut-off for these calls is given here.

How the values were obtained:
[1] = Inhibition of Burkholderia cenocepacia synthase CepI assessed as liberation of ACP thiol using SAM as substrate by DCPIP method
Burkholderia cenocepacia [2] = assay: Binding affinity to Burkholderia cenocepacia synthase CepI assessed as stabilization of protein in presence of trypsin at 50 uM by standard colorimetric trypsin assay
Burkholderia cenocepacia [3] = assay: Inhibition of Burkholderia cenocepacia synthase CepI assessed as liberation of ACP thiol using SAM as substrate at 100 uM by DCPIP method

For `CCCCCCCC(=O)N[C@H]1C[C@@H](CSC[C@H]2O[C@@H](n3cnc4c(N)ncnc43)[C@H](O)[C@@H]2O)OC1=O`, the IC50 [1] was 1 µM, the Activity (Burkholderia cenocepacia [2]) was “Active” and the inhibition (Burkholderia cenocepacia [3]) was “Active”.
For `CCCCCCCC(=O)N[C@@H]1C[C@H](CSC[C@H]2O[C@@H](n3cnc4c(N)ncnc43)[C@H](O)[C@@H]2O)OC1=O`, the IC50 [1] was 100 µM and the inhibition (Burkholderia cenocepacia [3]) was “Active”.
